Test results taken from patent US4738971A, “N-aryl-1,2-dihydro-4-substituted-1-alkyl-2-oxo-quinoline-3-carboxamides” (priority 1981, dated 1988).

Tests used:
[1] = tested on: carrageenan-induced edema; assay: carrageenan edema test in rats; format: in vivo, rat (female Sprague-Dawley); settings: for significant potentiation of the carrageenan edema: dose within the range 10-160 mg/kg p.o.; for change in vivo at 80 mg/kg: Rattus norvegicus, po, 80 mg/kg p.o., 30 min before carrageenan, edema weight 3 h after, vs control, preliminary, read-out: Potentiation of the carrageenan edema, %
Summary of the method: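 Female Sprague-Dawley rats (110-120 g, ≥10 per group) received compound intragastrically in aqueous methocel 30 min before plantar carrageenan injection into the right hind paw. At 3 h, right minus left paw weight gave edema weight, expressed as percent of methocel controls.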

[2] = tested on: delayed hypersensitivity reaction (pertussis vaccine pleurisy); assay: pertussis vaccine pleurisy test in rats; format: in vivo, rat (male Sprague-Dawley); settings: 10 mg/kg p.o.; for change in vivo at 10 mg/kg: Rattus norvegicus, po, 48 h, once daily day 10 to day 13, vs control, preliminary, read-out: Enhancement of the delayed hypersensitivity reaction assessed by the exudate vol.
Summary of the method: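 Male Sprague-Dawley rats (250-275 g, ≥10/group) sensitized day 0 with heat-killed B. pertussis in Freund's incomplete adjuvant into hind and forepaw, challenged intrapleurally day 12. Compounds in aqueous methocel given intragastrically once daily days 10-13. Pleural exudate volume measured day 14, expressed as percent of methocel control.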

[3] = tested on: delayed hypersensitivity reaction (adjuvant arthritis, Mycobacterium butyricum); assay: adjuvant arthritis test in rats; format: in vivo, rat (male Lister hooded); settings: for significant potentiating effect in the adjuvant arthritis test / change in vivo at 40 mg/kg: 40 mg/kg p.o.; for change in vivo at 20 mg/kg: 20 mg/kg p.o.; for change in vivo at 10 mg/kg: 10 mg/kg p.o.
Text: (§1) The adjuvant arthritis test in rats produces a measureable extent of a delayed hypersensitivity reaction and can be used for a determination of variations in the extent of the delayed hypersensitivity reaction upon drug administration to the host. An increase in the extent of the delayed hypersensitivity reaction upon drug administration consequently indicates enhanced cell-mediated immunity in the host.
This example illustrates the effect of the compounds of the general formula I in the adjuvant arthritis test in rats.
as §1, with “produces” for “produces a measureable extent of”, “variations” for “variations in the extent”
A modification of a method described in (12) was used. Male Lister hooded rats weighing 250-275 g were used. At least 9 animals were used in each experimental group.
A single intradermal injection of 0.5 mg/0.1 ml heat killed Mycobacterium butyricum suspended in sterile liquid paraffinum was given into the right hind foot of all rats. After this injection, day 0, the volume of the left hind paw, measured by water displacement, was followed to the end of the experiment.
The substances suspended in aqueous methocel solution 10 ml/kg were given intragastrically. The control group was given methocel solution 10 ml/kg. The different groups of animals were thus treated once daily from day -4 to day 14. The effect of the substances was assessed by the left foot volume expressed in percent after comparison with the control groups.

mice = mice p.o.; reference 13; cited from earlier work
[4] = Rattus norvegicus, po, 336 h, once daily day -4 to day 14, vs control, preliminary, read-out: Increase of the volume of the left foot

| Structure (SMILES) | significant enhancing effect in the pertussis vaccine pleurisy test [2] | significant potentiating effect in the adjuvant arthritis test [3] | change in vivo at 80 mg/kg [1] [%] | change in vivo at 10 mg/kg [2] [%] | other results |
| --- | --- | --- | --- | --- | --- |
| COc1ccc(N(C)C(=O)c2c(O)c3cc(OC)ccc3n(C)c2=O)cc1 [21:14, N-(4-methoxyphenyl)-N-methyl-1,2-dihydro-4-hydroxy-6-methoxy-1-methyl-2-oxo-quinoline-3-carboxamide] | significant enhancing effect | significant potentiating effect |  |  | significant potentiation of the carrageenan edema [1]: potentiate significantly |
| COc1ccc2c(c1)c(O)c(C(=O)Nc1ccccc1)c(=O)n2C [1:2, N-phenyl-1,2-dihydro-4-hydroxy-6-methoxy-1-methyl-2-oxo-quinoline-3-carboxamide] | significant enhancing effect | significant potentiating effect | 61 |  |  |
| CN(C)c1ccc(NC(=O)c2c(O)c3ccccc3n(C)c2=O)cc1 [1:11, N-/4-dimethylaminophenyl/-1,2-dihydro-4-hydroxy-1-methyl-2-oxo-quinoline-3-carboxamide] |  |  | 76 | 37 | change in vivo at 40 mg/kg [3, 4]: 45% |
| CN(C(=O)c1c(O)c2ccccc2n(C)c1=O)c1ccc(F)cc1 [21:35, N-(4-fluorophenyl)-N-methyl-1,2-dihydro-4-hydroxy-1-methyl-2-oxo-quinoline-3-carboxamide] | significant enhancing effect | significant potentiating effect |  |  | significant potentiation of the carrageenan edema [1]: potentiate significantly |
| O=C(Nc1ccccc1)c1c(O)c2cccc3c2n(c1=O)CCC3 [2:3, N-phenyl-1,2-dihydro-4-hydroxy-2-oxo-1,8-trimethylene-quinoline-3-carboxamide] |  |  | 61 | 66 | change in vivo at 40 mg/kg [3, 4]: 39% |
| CN(C(=O)c1c(O)c2ccccc2n(C)c1=O)c1ccccn1 [21:7, N-methyl-N-(2-pyridyl)-1,2-dihydro-4-hydroxy-1-methyl-2-oxo-quinoline-3-carboxamide] |  | significant potentiating effect |  | 21 | significant potentiation of the carrageenan edema [1]: potentiate significantly |
| COc1c(C(=O)Nc2ccccc2)c(=O)n(C)c2ccccc12 [6:1, N-phenyl-1,2-dihydro-4-methoxy-1-methyl-2-oxo-quinoline-3-carboxamide] |  |  | 60 | 91 | change in vivo at 40 mg/kg [3, 4]: 34% |
| Cn1c(=O)c(C(=O)Nc2ccc(CC(=O)O)cc2)c(O)c2ccccc21 [1:12, N-/4-carboxymethylphenyl/-1,2-dihydro-4-hydroxy-1-methyl-2-oxo-quinoline-3-carboxamide] |  | significant potentiating effect | 29 | 65 |  |
| Cn1c(=O)c(C(=O)Nc2nccs2)c(O)c2ccccc21 [7:1, N-(2-thiazolyl)-1,2-dihydro-4-hydroxy-1-methyl-2-oxo-quinoline-3-carboxamide] |  |  | 84 | 81 | change in vivo at 20 mg/kg [3, 4]: 44%; change in vivo at 40 mg/kg [3, 4]: 35% |
| CCN(C(=O)c1c(O)c2ccccc2n(C)c1=O)c1ccccc1 [21:5, N-ethyl-N-phenyl-1,2-dihydro-4-hydroxy-1-methyl-2-oxo-quinoline-3-carboxamide] |  | significant potentiating effect |  | 29 | significant potentiation of the carrageenan edema [1]: potentiate significantly |
| Cn1c(=O)c(C(=O)Nc2ccc(Cl)cc2)c(O)c2ccccc21 [1:9, N-/4-chlorophenyl/-1,2-dihydro-4-hydroxy-1-methyl-2-oxo-quinoline-3-carboxamide] | significant enhancing effect | significant potentiating effect | 48 |  |  |
| CCn1c(=O)c(C(=O)Nc2ccccc2)c(O)c2ccccc21 [1:10, N-phenyl-1,2-dihydro-1-ethyl-4-hydroxy-2-oxo-quinoline-3-carboxamide] |  | significant potentiating effect | 68 | 30 |  |
| c1ccc([C@H]2CN3CCSC3=N2)cc1 [Levamisole, levamisole, reference compound] |  |  |  | 13 | acute LD50 (mice): 285 mg/kg; change in vivo at 5 mg/kg ([3]; Rattus norvegicus, po, 336 h, 5 mg/kg p.o., once daily day -4 to day 14, vs control, preliminary, read-out: Increase of the volume of the left foot): 4%; change in vivo at 10 mg/kg [3, 4]: 12% |
| Cn1c(=O)c(C(=O)Nc2ccccc2)c(O)c2ccccc21 [1:1, N-phenyl-1,2-dihydro-4-hydroxy-1-methyl-2-oxo-quinoline-3-carboxamide] |  |  | 40 | 55 | change in vivo at 20 mg/kg [3, 4]: 50%; change in vivo at 40 mg/kg [3, 4]: 41% |
| COc1ccc(N(C)C(=O)c2c(O)c3ccccc3n(C)c2=O)cc1 [21:6, N-(4-methoxyphenyl)-N-methyl-1,2-dihydro-4-hydroxy-1-methyl-2-oxo-quinoline-3-carboxamide] |  |  | 38 | 90 | change in vivo at 10 mg/kg [3, 4]: 41% |
| COc1cccc2c(O)c(C(=O)Nc3ccccc3)c(=O)n(C)c12 [1:22, N-phenyl-1,2-dihydro-4-hydroxy-8-methoxy-1-methyl-2-oxo-quinoline-3-carboxamide] | significant enhancing effect | significant potentiating effect | 58 |  |  |
| Cn1c(=O)c(C(=O)Nc2ccccc2)c(O)c2c(F)cccc21 [1:19, N-phenyl-1,2-dihydro-5-fluoro-4-hydroxy-1-methyl-2-oxo-quinoline-3-carboxamide] | significant enhancing effect | significant potentiating effect | 67 |  |  |
| CN(C)c1ccc(NC(=O)c2c(O)c3cc(N(C)C)cc4c3n(c2=O)CCC4)cc1 [13:3, N-(4-dimethylaminophenyl)-1,2-dihydro-6-dimethylamino-4-hydroxy-2-oxo-1.8-trimethylene-quinoline-3-carboxamide] | significant enhancing effect | significant potentiating effect |  |  | significant potentiation of the carrageenan edema [1]: potentiate significantly |
| Cn1c(=O)c(C(=O)Nc2cnccn2)c(O)c2ccccc21 [7:4, N-pyrazinyl-1,2-dihydro-4-hydroxy-1-methyl-2-oxo-quinoline-3-carboxamide] |  |  | 34 | 27 | change in vivo at 40 mg/kg [3, 4]: 29% |
| CN(C(=O)c1c(O)c2ccccc2n(C)c1=O)c1ccccc1 [1:43, N-phenyl-N-methyl-1,2-dihydro-4-hydroxy-1-methyl-2-oxo-quinoline-3-carboxamide] |  | significant potentiating effect | 84 | 70 | change in vivo at 10 mg/kg [3, 4]: 48% |
| CN(C(=O)c1c(O)c2ccccc2n(C)c1=O)c1ccc(Cl)cc1 [21:9, N-(4-chlorophenyl)-N-methyl-1,2-dihydro-4-hydroxy-1-methyl-2-oxo-quinoline-3-carboxamide] |  |  | 52 | 84 | change in vivo at 10 mg/kg [3, 4]: 51% |
